Measurements: patent US12692254B2, “Benzimidazole inhibitors of PAD enzymes” (BRISTOL-MYERS SQUIBB COMPANY, priority 2018, dated 2026)

These compounds were tested against human PAD4 (hPAD4) (Homo sapiens, UniProt Q9UM07) (assay: RFMS human PAD4 functional assay (rapid-fire mass spectrum)). Settings: 5 nM hPAD4 enzyme, 250 μM BAEE, 50 μM Calcium; 30 min preincubation, 90 min reaction at 37° C.
human PAD4 (hPAD4), sequence (Q9UM07 whole entry): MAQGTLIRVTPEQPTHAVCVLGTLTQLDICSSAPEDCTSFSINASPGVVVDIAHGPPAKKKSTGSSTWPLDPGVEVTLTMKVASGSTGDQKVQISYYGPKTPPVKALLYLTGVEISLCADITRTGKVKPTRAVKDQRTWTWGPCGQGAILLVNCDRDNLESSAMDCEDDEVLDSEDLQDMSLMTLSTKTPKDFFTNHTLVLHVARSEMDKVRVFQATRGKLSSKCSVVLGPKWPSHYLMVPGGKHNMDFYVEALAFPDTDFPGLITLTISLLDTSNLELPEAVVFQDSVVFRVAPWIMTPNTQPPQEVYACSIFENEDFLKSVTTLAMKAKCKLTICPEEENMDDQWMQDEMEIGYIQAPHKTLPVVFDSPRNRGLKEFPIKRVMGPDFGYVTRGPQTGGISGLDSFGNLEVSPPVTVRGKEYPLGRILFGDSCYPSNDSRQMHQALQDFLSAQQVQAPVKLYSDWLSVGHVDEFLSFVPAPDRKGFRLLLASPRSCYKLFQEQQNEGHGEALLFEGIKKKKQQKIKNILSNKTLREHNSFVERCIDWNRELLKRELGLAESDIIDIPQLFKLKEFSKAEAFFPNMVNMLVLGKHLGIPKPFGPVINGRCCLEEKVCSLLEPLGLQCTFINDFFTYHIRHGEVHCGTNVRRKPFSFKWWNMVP
Type: biochemical
In short: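 PAD4 (10 nM) preincubated 30 min with compound (top final 50 μM), then BAEE substrate added in pH 7.5 HEPES buffer with DTT, 50 μM calcium, TPEN; 90 min at 37° C. After TCA quench, citrulline derivatized with phenyl glyoxal (4 mM final, 30 min, 37° C) and quantified by RapidFire MS against internal standard.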
For COc1cc(C(=O)N2C[C@H]3CC[C@@H]2[C@@H]3N)cc2nc(-c3cc4ccccc4n3C)n(CC3CN(c4cncnc4C#N)C3)c12 [Example 44, 5-[3-({5-[(1R,4R,7R)-7-amino-2-azabicyclo[2.2.1]heptane-2-carbonyl]-7-methoxy-2-(1-methyl-1H-indol-2-yl)-1H-1,3-benzodiazol-1-yl}methyl)azetidin-1-yl]pyrimidine-4-carbonitrile], the IC50 was 112 nM. For COc1cc(C(=O)N2C[C@H]3CC[C@@H]2[C@@H]3N)cc2nc(-c3cc4ccc(Cl)cc4n3C)n(CC3CN(c4ccnc(C)n4)C3)c12 [Example 45, (1R,4R,7R)-2-[2-(6-chloro-1-methyl-1H-indol-2-yl)-7-methoxy-1-{[1-(2-methylpyrimidin-4-yl)azetidin-3-yl]methyl}-1H-1,3-benzodiazole-5-carbonyl]-2-azabicyclo[2.2.1]heptan-7-amine], the IC50 was 114 nM. In the case of COc1cc(C(=O)N2C[C@H]3CC[C@@H]2[C@@H]3N)cc2nc(-c3cc4cccnc4n3CC3CC3)n(CC3CN(c4cncnc4C#N)C3)c12 [Example 46, 5-[3-({5-[(1R,4R,7R)-7-amino-2-azabicyclo[2.2.1]heptane-2-carbonyl]-2-[1-(cyclopropylmethyl)-1H-pyrrolo[2,3-b]pyridin-2-yl]-7-methoxy-1H-1,3-benzodiazol-1-yl}methyl)azetidin-1-yl]pyrimidine-4-carbonitrile], the IC50 is reported as 118 nM. With COc1cc(C(=O)N2C[C@H]3CC[C@@H]2[C@@H]3N)cc2nc(-c3cc4cccnc4n3CC3CC3)n(CC3CN(c4nccs4)C3)c12 [Example 47, (1R,4R,7R)-2-{2-[1-(cyclopropylmethyl)-1H-pyrrolo[2,3-b]pyridin-2-yl]-7-methoxy-1-{[1-(1,3-thiazol-2-yl)azetidin-3-yl]methyl}-1H-1,3-benzodiazole-5-carbonyl}-2-azabicyclo[2.2.1]heptan-7-amine] the IC50 was 119 nM. COc1cc(C(=O)N2C[C@H]3CC[C@@H]2[C@@H]3N)cc2nc(-c3cc4ccccc4n3C)n(CC3CN(c4ncccn4)C3)c12 [Example 48, (1R,4R,7R)-2-[7-methoxy-2-(1-methyl-1H-indol-2-yl)-1-{[1-(pyrimidin-2-yl)azetidin-3-yl]methyl}-1H-1,3-benzodiazole-5-carbonyl]-2-azabicyclo[2.2.1]heptan-7-amine] was tested, and the IC50 was 122 nM. Work on COc1cc(N2CC(Cn3c(-c4cc5cccnc5n4CC4CC4)nc4cc(C(=O)N5C[C@H]6CC[C@@H]5[C@@H]6N)cc(OC)c43)C2)ccn1 [Example 49, (1R,4R,7R)-2-{2-[1-(cyclopropylmethyl)-1H-pyrrolo[2,3-b]pyridin-2-yl]-7-methoxy-1-{[1-(2-methoxypyridin-4-yl)azetidin-3-yl]methyl}-1H-1,3-benzodiazole-5-carbonyl}-2-azabicyclo[2.2.1]heptan-7-amine] yielded an IC50 of 126 nM. For COc1cc(C(=O)N2C[C@H]3CC[C@@H]2[C@@H]3N)cc2nc(-c3cc4cccnc4n3CC3CC3)n(CC3CN(c4ccccc4)C3)c12 [Example 50, (1R,4R,7R)-2-{2-[1-(cyclopropylmethyl)-1H-pyrrolo[2,3-b]pyridin-2-yl]-7-methoxy-1-[(1-phenylazetidin-3-yl)methyl]-1H-1,3-benzodiazole-5-carbonyl}-2-azabicyclo[2.2.1]heptan-7-amine], the IC50 was 141 nM. With COc1cc(C(=O)N2C[C@H]3CC[C@@H]2[C@@H]3N)cc2nc(-c3cc4cccnc4n3CC3CC3)n(CC3CN(c4ccnc(C)c4)C3)c12 [Example 51, (1R,4R,7R)-2-{2-[1-(cyclopropylmethyl)-1H-pyrrolo[2,3-b]pyridin-2-yl]-7-methoxy-1-{[1-(2-methylpyridin-4-yl)azetidin-3-yl]methyl}-1H-1,3-benzodiazole-5-carbonyl}-2-azabicyclo[2.2.1]heptan-7-amine] the IC50 was 152 nM. With COc1cc(C(=O)N2C[C@H]3CC[C@@H]2[C@@H]3N)cc2nc(-c3cc4cccnc4n3CC3CC3)n(CC3CN(c4cncnc4C#N)C3)c12 [Example 52, 5-[3-({5-[(1R,4R,7R)-7-amino-2-azabicyclo[2.2.1]heptane-2-carbonyl]-2-[1-(cyclopropylmethyl)-1H-pyrrolo[2,3-b]pyridin-2-yl]-7-methoxy-1H-1,3-benzodiazol-1-yl}methyl)azetidin-1-yl]pyrimidine-4-carbonitrile] the IC50 was 156 nM. Work on COc1cc(C(=O)N2C[C@H]3CC[C@@H]2[C@@H]3N)cc2nc(-c3cc4ccc(Cl)cc4n3CC3CC3)n(CC3CN(c4ccnc(C5CC5)n4)C3)c12 [Example 53, (1R,4R,7R)-2-{2-[6-chloro-1-(cyclopropylmethyl)-1H-indol-2-yl]-1-{[1-(2-cyclopropylpyrimidin-4-yl)azetidin-3-yl]methyl}-7-methoxy-1H-1,3-benzodiazole-5-carbonyl}-2-azabicyclo[2.2.1]heptan-7-amine] yielded an IC50 of 157 nM. COc1ccc2cc(-c3nc4cc(C(=O)N5C[C@H]6CC[C@@H]5[C@@H]6N)cc(OC)c4n3CC3CN(c4cccc(C#N)n4)C3)n(CC3CC3)c2n1 [Example 54, 6-[3-({5-[(1R,4R,7R)-7-amino-2-azabicyclo[2.2.1]heptane-2-carbonyl]-2-[1-(cyclopropylmethyl)-6-methoxy-1H-pyrrolo[2,3-b]pyridin-2-yl]-7-methoxy-1H-1,3-benzodiazol-1-yl}methyl)azetidin-1-yl]pyridine-2-carbonitrile] gave an IC50 of 162 nM. For COc1cc(C(=O)N2C[C@H]3CC[C@@H]2[C@@H]3N)cc2nc(-c3cc4cccnc4n3CC3CC3)n(CC3CN(c4cccc5c4CNC5=O)C3)c12 [Example 55, 4-[3-({5-[(1R,4R,7R)-7-amino-2-azabicyclo[2.2.1]heptane-2-carbonyl]-2-[1-(cyclopropylmethyl)-1H-pyrrolo[2,3-b]pyridin-2-yl]-7-methoxy-1H-1,3-benzodiazol-1-yl}methyl)azetidin-1-yl]-2,3-dihydro-1H-isoindol-1-one], the IC50 was 163 nM. For COc1cc(C(=O)N2C[C@H]3CC[C@@H]2[C@@H]3N)cc2nc(-c3cc4cccnc4n3CC3CC3)n(CC3CN(c4nnc(C)o4)C3)c12 [Example 56, (1R,4R,7R)-2-{2-[1-(cyclopropylmethyl)-1H-pyrrolo[2,3-b]pyridin-2-yl]-7-methoxy-1-{[1-(5-methyl-1,3,4-oxadiazol-2-yl)azetidin-3-yl]methyl}-1H-1,3-benzodiazole-5-carbonyl}-2-azabicyclo[2.2.1]heptan-7-amine], the IC50 was 166 nM. COc1cc(C(=O)N2C[C@H]3CC[C@@H]2[C@@H]3N)cc2nc(-c3cc4cccnc4n3CC3CC3)n(CC3CN(c4ccncc4)C3)c12 [Example 57, (1R,4R,7R)-2-{2-[1-(cyclopropylmethyl)-1H-pyrrolo[2,3-b]pyridin-2-yl]-7-methoxy-1-{[1-(pyridin-4-yl)azetidin-3-yl]methyl}-1H-1,3-benzodiazole-5-carbonyl}-2-azabicyclo[2.2.1]heptan-7-amine] was tested, and the IC50 was 168 nM. COc1cc(C(=O)N2C[C@H]3CC[C@@H]2[C@@H]3N)cc2nc(-c3cc4cc(Cl)ccc4n3C)n(CC3CN(c4cncc(C#N)c4)C3)c12 [Example 58, 5-[3-({5-[(1R,4R,7R)-7-amino-2-azabicyclo[2.2.1]heptane-2-carbonyl]-2-(5-chloro-1-methyl-1H-indol-2-yl)-7-methoxy-1H-1,3-benzodiazol-1-yl}methyl)azetidin-1-yl]pyridine-3-carbonitrile] showed an IC50 of 169 nM.
